Assay [1] has as its system untransduced T cells (UnT). In words: In vitro mixed lymphoid (MLR) model with LUCAR-20SD cells, UnT and Raji cells: host UnT cells. It is filed as cell-based, human. Particulars: 0.05 μM, 1 μM, 2 μM MTX. Here is the method: To evaluate the ability of LUCAR-20SD cells to tolerate allogeneic T cell rejection, an in vitro mixed lymphoid (MLR) model was established.
Using the T cells from a random healthy donor (B donor), LUCAR-20SD cells were prepared following the method in Example 1, as the graft cells. Un-transduced T cells (UnT) from another random healthy donor (Adonor) were also prepared, as the host cells.
The cell density of CD20 positive cells (lymphoma cell lines Raji, ATCC, CCL-86) was adjusted to 1×10^6 cells/mL. Raji cells were treated with 20 μg/mL mitomycin at 37° C. for 3 h, washed three times with 10 mL DPBS, and were resuspended in the culture medium. 20×10^6 untransduced T cells (UnT, T cell donor A), 1×10^6 LUCAR-20SD cells (T cell donor B), and 5×10^6 treated lymphoma cells Raji were mixed and cultured in the medium. The cell mixture was divided into 4 groups, and 0 μM MTX, 0.05 μM MTX, 1 μM MTX, or 2 μM MTX was added, respectively. […] According to the formula: fold change of cell number (UnT)=[cell number counted by AOPI×(CAR-CD5+%)]/20, fold change of cell number (LUCAR-20SD cells)=[cell number counted by AOPI×(CAR+CD5+%)]/1, the cell proliferation curves of UnT and LUCAR-20SD cells were plotted.

The next assay deals with LUCAR-GC cells. In words: Expansion of transplanted LUCAR-GC cells in peripheral blood of NUGC4 xenograft mice (hCD45+%/live). It is filed as in vivo, NCG immunodeficient mice; human cells. The note with it: 22.635 mg/kg MTX i.p. The source says:
Severely immunodeficient NCG mice were used for in vivo efficacy evaluation. On day −14 before treatment, NCG immunodeficient mice were inoculated subcutaneously with tumor cells (3×10^6 human gastric cancer cells NUGC4/mouse). The xenografted mice were divided into 5 groups ([…], G3, G4 and G5) on day 0, and received a single intravenous injection of HBSS (G1, G5), untransduced T cells (UnT) (G2, at a dose of 3.6×10^6 cells/mouse), LUCAR-GC cell preparation (G3 and G4, at a dose of 1×10^6 CAR+ cells/mouse). Mice in G4 and G5 groups were additionally given 22.635 mg/kg MTX by intraperitoneal injection on day5, day10, day 15, day20, day25, day30, day35, respectively. […] During the experiment, animal status, survival, tumor volume and body weight were measured twice a week. Blood was collected from the mouse eyeballs every week to separate cells, and then resuspended in DPBS with 1 μL of FITC anti human CD45 (Biolegend, 304038). The proportion of transplanted cells (hCD45+%/live) in the peripheral blood of mice was counted.
For orientation: In xenograft studies the graft and the host belong to different species.

Consider `CN(Cc1cnc2nc(N)nc(N)c2n1)c1ccc(C(=O)N[C@@H](CCC(=O)O)C(=O)O)cc1` [MTX, methotrexate], for which, in assay [1] (day 1 to day 13), the “fold change of cell number (UnT)” value is “less than 1”. Besides, in assay [1] (mixed culture with LUCAR-20SD and Raji cells), the “proliferation of UnT cells” value was “significantly inhibited”. In addition, in the assay with LUCAR-GC cells, the “expansion of LUCAR-GC cells in peripheral blood, presence or absence of MTX” value was “no significant difference in the expansion of LUCAR-GC cells”.

For the origin of these results see patent US20260345609A1, “METHODS FOR PROMOTING PERSISTENCE OF CELL THERAPY” (Legend Biotech Ireland Limited, priority 2022, published 2026).
